Measured values taken from the supplement of paper PMC10307832.

Columns and labels:
Experiment in all cases: relative viability (nuclei count vs DMSO), 5 days (fraction); higher = more cells survive
Pazopanib + Trametinib = compound: Cc1ccc(Nc2nccc(N(C)c3ccc4c(C)n(C)nc4c3)n2)cc1S(N)(=O)=O [Pazopanib] + CC(=O)Nc1cccc(-n2c(=O)n(C3CC3)c(=O)c3c(Nc4ccc(I)cc4F)n(C)c(=O)c(C)c32)c1 [Trametinib] (partner 0.02 µM)
Outline: (§1)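 Cells from lung cancer lines were seeded into 1536-well plates and, one day later, dosed by pin tool. Treatments were either a single drug or a fixed dose of an anchor drug with five library-drug doses (not always all listed) in √10 steps. After 5 days, nuclei were stained in a one-step fixation (final 0.05% Triton X-100, 1% formaldehyde, 1 ug/ml Hoechst) and counted on 4× images, and relative viability is the treated-to-vehicle nuclei ratio, as the median of duplicate plates.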

Pazopanib + Vorinostat = compound: Cc1ccc(Nc2nccc(N(C)c3ccc4c(C)n(C)nc4c3)n2)cc1S(N)(=O)=O [Pazopanib] + O=C(CCCCCCC(=O)Nc1ccccc1)NO [Vorinostat] (partner 1 µM)
Outline: as §1

Pazopanib + Pictilisib = compound: Cc1ccc(Nc2nccc(N(C)c3ccc4c(C)n(C)nc4c3)n2)cc1S(N)(=O)=O [Pazopanib] + CS(=O)(=O)N1CCN(Cc2cc3nc(-c4cccc5[nH]ncc45)nc(N4CCOCC4)c3s2)CC1 [Pictilisib] (partner 1 µM)
Outline: as §1

Ponatinib + Phenformin = compound: Cc1ccc(C(=O)Nc2ccc(CN3CCN(C)CC3)c(C(F)(F)F)c2)cc1C#Cc1cnc2cccnn12 [Ponatinib] + N=C(N)NC(=N)NCCc1ccccc1 [Phenformin] (partner 250 µM)
Outline: as §1

Cell Line	relative viability (Pazopanib + Trametinib; first compound 0.01 µM)	relative viability (Pazopanib + Trametinib; first compound 0.03162 µM)	relative viability (Pazopanib + Trametinib; first compound 0.1 µM)	relative viability (Pazopanib + Trametinib; first compound 0.3162 µM)	relative viability (Pazopanib + Trametinib; first compound 1 µM)	relative viability (Pazopanib + Vorinostat; first compound 0.01 µM)	relative viability (Pazopanib + Vorinostat; first compound 0.03162 µM)	relative viability (Pazopanib + Vorinostat; first compound 0.1 µM)	relative viability (Pazopanib + Vorinostat; first compound 0.3162 µM)	relative viability (Pazopanib + Vorinostat; first compound 1 µM)	relative viability (Pazopanib + Pictilisib; first compound 0.01 µM)	relative viability (Pazopanib + Pictilisib; first compound 0.03162 µM)	relative viability (Pazopanib + Pictilisib; first compound 0.1 µM)	relative viability (Pazopanib + Pictilisib; first compound 0.3162 µM)	relative viability (Pazopanib + Pictilisib; first compound 1 µM)	relative viability (Ponatinib + Phenformin; first compound 0.002 µM)	relative viability (Ponatinib + Phenformin; first compound 0.006325 µM)	relative viability (Ponatinib + Phenformin; first compound 0.06325 µM)	relative viability (Ponatinib + Phenformin; first compound 0.2 µM)
201T	0.719	0.729	0.737	0.783	0.705	0.892	0.949	0.937	1.02	0.843	0.602	0.603	0.709	0.742	0.695	0.417	0.458	0.438	0.42
A549	–	–	–	–	–	–	–	–	–	–	0.494	0.477	0.63	0.589	0.423	0.161	0.142	0.142	0.147
A-427	0.7	0.882	0.679	0.71	0.753	0.862	0.941	0.825	0.903	0.971	0.612	0.705	0.692	0.746	0.782	0.34	0.398	0.244	0.225
ABC-1	–	–	–	–	–	1.04	1.38	0.731	1.2	1.27	0.635	0.839	0.82	0.799	0.86	0.215	0.23	0.224	0.263
BEN	1.05	1.04	0.916	1.08	0.925	0.593	0.606	0.533	0.591	0.563	0.514	0.621	0.515	0.567	0.488	0.253	0.288	0.253	0.264
CAL-12T	0.32	0.437	0.331	0.437	0.446	0.742	0.649	0.744	0.754	0.834	0.335	0.461	0.527	0.401	0.423	0.529	0.541	0.668	0.601
COR-L23	0.511	0.649	0.698	0.625	0.773	0.446	0.5	0.424	0.508	0.514	0.649	0.771	0.805	0.962	0.881	0.382	0.453	0.419	0.436
COR-L 105	0.468	0.406	0.438	0.427	0.58	0.867	0.959	0.765	0.878	0.882	0.4	0.473	0.411	0.443	0.417	0.421	0.479	0.501	0.466
Calu-6	–	–	–	–	–	–	–	–	–	–	0.874	1.01	0.993	0.849	0.877	–	–	–	–
ChaGo-K-1	0.908	0.75	0.904	0.905	0.901	0.743	0.772	0.756	0.757	0.727	0.543	0.876	0.632	0.613	0.759	0.423	0.447	0.477	0.466
EBC-1	–	–	–	–	–	–	–	–	–	–	0.402	0.508	0.376	0.412	0.394	–	–	–	–
EKVX	0.337	0.349	0.267	0.318	0.449	0.674	0.731	0.79	0.742	0.604	0.411	0.402	0.415	0.507	0.517	0.231	0.25	0.234	0.249
EMC-BAC-2	–	0.965	0.897	0.931	1.1	–	0.512	0.232	0.472	0.432	0.457	0.576	0.623	0.579	0.604	0.495	0.449	0.508	0.487
EPLC-272H	–	0.278	0.281	0.251	0.285	0.389	0.432	0.682	0.652	0.535	0.264	0.335	0.27	0.35	0.274	0.305	0.336	0.292	0.316
H3255	0.512	0.564	0.617	0.739	0.731	0.709	0.841	0.701	0.901	0.793	0.452	0.454	0.427	0.417	0.582	0.366	0.366	0.393	0.329
HARA	0.829	0.94	0.604	0.755	0.725	0.475	0.424	0.605	0.438	0.605	0.26	0.332	0.493	0.479	0.343	0.446	0.437	0.44	0.388
